A short description of data set [1]: BJC HealthCare electronic health record cohort: DILI hospitalizations. Particulars: of 2800 DILI hospitalizations; 4570 hospitalizations prescribed meloxicam. Also noted: species or system human.
The conditions of data set [2]: patients; ref Gschwend et al., 2007; cited from earlier work.
For the next data set, the target named is T1, CYP1A2 (Homo sapiens, UniProt P05177).
T1 sequence (P05177 1-516): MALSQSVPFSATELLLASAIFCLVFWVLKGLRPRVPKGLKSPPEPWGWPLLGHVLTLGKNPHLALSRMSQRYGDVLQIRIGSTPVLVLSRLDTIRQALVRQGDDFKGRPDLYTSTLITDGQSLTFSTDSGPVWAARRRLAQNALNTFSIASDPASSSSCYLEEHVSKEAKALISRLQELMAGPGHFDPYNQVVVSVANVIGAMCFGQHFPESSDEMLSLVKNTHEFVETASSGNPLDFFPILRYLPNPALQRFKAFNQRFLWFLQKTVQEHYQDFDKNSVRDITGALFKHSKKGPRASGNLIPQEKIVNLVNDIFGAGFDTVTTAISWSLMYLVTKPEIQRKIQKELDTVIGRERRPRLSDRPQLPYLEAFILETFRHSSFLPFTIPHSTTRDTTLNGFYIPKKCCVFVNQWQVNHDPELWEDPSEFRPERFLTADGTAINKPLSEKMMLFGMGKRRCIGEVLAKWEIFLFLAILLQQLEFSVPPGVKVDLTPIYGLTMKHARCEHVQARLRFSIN
Particulars: pH 7.4.

Data set [3] is described as follows: FAERS search for hepatobiliary disorder cases involving meloxicam. Also noted: species or system human.
Data set [4] concerns P450 activity in human liver microsomes (HLM150). Description: Inhibitor phenotyping of bioactivation in human liver microsomes. The data set is classed as in vitro ADME. On the technique in general: Microsomes from liver hold many membrane-bound enzymes, among them those of drug oxidation.
For another data set, the target named is CYP2C19 (Homo sapiens, UniProt P33261). The conditions noted are these: 400 µM sudoxicam, 100 nM CYP2C19, 30 min.
A further data set addresses CYP3A4 (Homo sapiens, UniProt P08684). Particulars: 400 µM sudoxicam, 100 nM CYP3A4, 30 min.
Substrate in data set [5]: Cc1cnc(NC(=O)C2=C(O)c3ccccc3S(=O)(=O)N2C)s1
Description: cells, lysate or membranes named. The conditions noted are these: other: meloxicam -> methylglyoxal (bioactivation), recombinant CYP 1A2; pH 7.4.

Substrate in data set [6]: CN1C(C(=O)Nc2nccs2)=C(O)c2ccccc2S1(=O)=O
Nature of the data set: cells, lysate or membranes named. Particulars: other: sudoxicam -> glyoxal (bioactivation), pH 7.4.

The values below come from publication PMC7807415 (Toxicology letters, 2020).

Values joined by “and” are separate entries in the source; they are usually repeats but may differ in a detail not shown here. Equal entries are not always repeated.

Sequence of CYP3A4 (P08684 whole entry): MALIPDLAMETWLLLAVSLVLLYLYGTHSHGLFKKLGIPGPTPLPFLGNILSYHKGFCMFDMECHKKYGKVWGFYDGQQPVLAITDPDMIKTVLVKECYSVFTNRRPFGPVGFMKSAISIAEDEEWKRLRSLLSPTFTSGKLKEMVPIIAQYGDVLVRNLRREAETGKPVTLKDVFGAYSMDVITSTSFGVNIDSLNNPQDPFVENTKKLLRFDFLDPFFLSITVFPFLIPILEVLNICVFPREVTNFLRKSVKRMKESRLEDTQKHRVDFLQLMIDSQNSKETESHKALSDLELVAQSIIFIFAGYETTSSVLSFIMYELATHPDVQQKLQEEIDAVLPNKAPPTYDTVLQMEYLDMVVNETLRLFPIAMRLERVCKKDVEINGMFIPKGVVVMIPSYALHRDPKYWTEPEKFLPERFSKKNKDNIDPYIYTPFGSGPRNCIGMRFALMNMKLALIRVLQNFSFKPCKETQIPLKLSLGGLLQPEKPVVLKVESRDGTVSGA

Consider `Cc1cnc(NC(=O)C2=C(O)c3ccccc3S(=O)(=O)N2C)s1` [meloxicam], for which, in data set [1], the “DILI hospitalizations that had been prescribed meloxicam” value is 8 hospitalizations. The maximum plasma levels in [2] is given as 3.2 µM. Moreover, on CYP1A2, the “Scaled contribution of CYP1A2 (Vmax/Km)” value was 0.457 pmol/min/mg protein/µM substrate and the Vmax was 1000 ± 53 pmol/min/nmol protein. In addition, the “methylglyoxal formation in recombinant P450 screen” value at CYP1A2 (recombinant enzyme, 30 min, 400 µM) was “only recombinant P450 to form detectable levels of methylglyoxal”. On CYP1A2 (recombinant enzyme), the “Percent contribution of CYP1A2” value came out at 100%. Besides, the “hepatobiliary disorder cases resulting in death” value in data set [3] (FAERS, 1998 to 2020) is 39 cases. For the same molecule, in data set [3] (human), the “serious cases of hepatobiliary disorders” value is recorded as 308 cases and the “total cases of hepatobiliary disorders” value was 326 cases.
`Nn1nnc2ccccc21` [ABT, 1-aminobenzotriazole]: the “blocked methylglyoxal formation (meloxicam bioactivation)” value in [4] (1 mM ABT, 10 µM meloxicam, HLM150 0.5 mg/mL, 40 min) amounted to 85%.
As for `CN1C(C(=O)Nc2nccs2)=C(O)c2ccccc2S1(=O)=O` [sudoxicam, N-(2-thiazolyl)-4-hydroxy-2-methyl-2H-1,2-benzothiazine-3-carboxamide 1,1-dioxide], the “glyoxal formation in recombinant P450 screen” value on CYP2C19 and at CYP3A4 was “capable of catalyzing the reaction” in each case.
Take `Cc1c(OCC(F)(F)F)ccnc1C[S+]([O-])c1nc2ccccc2[nH]1` (stereo not drawn) [lansoprazole]: the “share of total applicable hepatobiliary cases with concomitant drug” value in [3] (human) is listed as 6%.
With `COc1ccc2[nH]c([S+]([O-])Cc3ncc(C)c(OC)c3C)nc2c1` (stereo not drawn) [omeprazole], the “share of total applicable hepatobiliary cases with concomitant drug” value in data set [3] (human) is 6%.
Regarding `O=c1cc(-c2ccccc2)oc2c1ccc1ccccc12` [ANF, α-naphthoflavone], the “effect on glyoxal formation (sudoxicam bioactivation)” value in [4] (16 µM ANF (CYP1A2 inhibitor), 10 µM sudoxicam, HLM150) is on record as “increased significantly the extent of the reaction”.

B1: CYP1A2 (Homo sapiens) (protein)
chain: T1 sequence (P05177 1-516)
Regarding B1, the Michaelis constant (Km) in data set [5] is recorded as 40 ± 7.5 µM.

B2: CYP2C8 (Homo sapiens) (protein)
chain: MEPFVVLVLCLSFMLLFSLWRQSCRRRKLPPGPTPLPIIGNMLQIDVKDICKSFTNFSKVYGPVFTVYFGMNPIVVFHGYEAVKEALIDNGEEFSGRGNSPISQRITKGLGIISSNGKRWKEIRRFSLTTLRNFGMGKRSIEDRVQEEAHCLVEELRKTKASPCDPTFILGCAPCNVICSVVFQKRFDYKDQNFLTLMKRFNENFRILNSPWIQVCNNFPLLIDCFPGTHNKVLKNVALTRSYIREKVKEHQASLDVNNPRDFIDCFLIKMEQEKDNQKSEFNIENLVGTVADLFVAGTETTSTTLRYGLLLLLKHPEVTAKVQEEIDHVIGRHRSPCMQDRSHMPYTDAVVHEIQRYSDLVPTGVPHAVTTDTKFRNYLIPKGTTIMALLTSVLHDDKEFPNPNIFDPGHFLDKNGNFKKSDYFMPFSAGKRICAGEGLARMELFLFLTTILQNFNLKSVDDLKNLNTTAVTKGIVSLPPSYQICFIPV
Regarding B2, in data set [6] (recombinant CYP 2C8), the Km is 5 µM and 4.6 ± 0.89 µM.

B3: CYP2C19 (Homo sapiens) (protein)
chain: MDPFVVLVLCLSCLLLLSIWRQSSGRGKLPPGPTPLPVIGNILQIDIKDVSKSLTNLSKIYGPVFTLYFGLERMVVLHGYEVVKEALIDLGEEFSGRGHFPLAERANRGFGIVFSNGKRWKEIRRFSLMTLRNFGMGKRSIEDRVQEEARCLVEELRKTKASPCDPTFILGCAPCNVICSIIFQKRFDYKDQQFLNLMEKLNENIRIVSTPWIQICNNFPTIIDYFPGTHNKLLKNLAFMESDILEKVKEHQESMDINNPRDFIDCFLIKMEKEKQNQQSEFTIENLVITAADLLGAGTETTSTTLRYALLLLLKHPEVTAKVQEEIERVIGRNRSPCMQDRGHMPYTDAVVHEVQRYIDLIPTSLPHAVTCDVKFRNYLIPKGTTILTSLTSVLHDNKEFPNPEMFDPRHFLDEGGNFKKSNYFMPFSAGKRICVGEGLARMELFLFLTFILQNFNLKSLIDPKDLDTTPVVNGFASVPPFYQLCFIPV
Regarding B3, the Michaelis-Menten constant (Km) in [6] (recombinant CYP 2C19) is 23 ± 5.2 µM.

What is called Km is the concentration of substrate that gives half-maximal velocity.
